Laboratory results: PMC5834442, “Identifying inhibitors of the Leishmania inositol phosphorylceramide synthase with antiprotozoal activity using a yeast-based assay and ultra-high throughput screening platform” (Scientific Reports, 2018)

System: L. donovani (MHOM/SD/62/1S-CL2D, LdBOB) axenic amastigotes
Experiment: Leishmania donovani axenic amastigote dose response assay (resazurin)
Format: cell-based
Settings: -logIC50 mol against L. donovani (LdBOB) axenic amastigotes, read-out: pIC50 Axenic (converted)

SMILES	IC50 [µM]
Cc1ccc(Nc2nc(C(N)=O)c(NC(=O)C3CCC3)s2)cc1 [ST/1548033]	> 50
CCn1cc(C(=O)O)c(=O)c2cc(F)ccc21 [ST/1766829]	24.5
O=C(Nc1nnc(C(F)(F)F)s1)c1ccc(Br)s1 [ST/782334]	11.7
Cn1c(=O)c(Oc2ccc(Cl)cc2)c(O)c2ccccc21 [ST/832324]	> 50
O=c1nc(SCc2ccccc2Cl)c2c([nH]1)CCCC2 [ST/1287093]	> 50
O=S(=O)(Nc1ccccc1Br)c1ccc(Cl)c(C(F)(F)F)c1 [ST/630987]	19.1
COc1ccc2cc(C(=O)Nc3ccc(F)c(Cl)c3)[nH]c2c1 [ST/803999]	11.2
O=C(NNC(=O)c1c(O)c2ccccc2[nH]c1=O)c1ccc(Cl)cc1Cl [SC/110880]	> 50
CC1CSC(N(C(=O)Cn2cnnn2)c2ccc(Cl)cc2)=N1 (stereo not drawn) [ST/811532]	> 50
O=C(Nc1cc(Cl)c(O)c(Cl)c1)c1ccc(Br)cc1 [ST/869684]	17.8
CCN(C(=O)Cc1c(C(=O)O)[nH]c2ccccc12)c1cc(C)ccc1C [ST/728445]	18.2
OC(CCC1CCCCC1)(Cn1ccnc1)c1ccc(F)cc1F (stereo not drawn) [JJP/1777/3]	14.1
O=C(NCc1ccc2c(c1)OCO2)c1ccccc1NS(=O)(=O)c1cccs1 [ST/1217724]	11.5
CCOc1cccc(C(=O)Nc2cc(-c3nc4ccccc4[nH]3)ccc2C)c1 [ST/591387]	15.8
OC(Cn1cncn1)(c1ccc(F)cc1F)C1CCCS1 (stereo not drawn) [JJP/1818/3]	> 50
Cc1cc(-c2nc3cc(Cl)ccc3o2)ccc1N [ST/880430]	26.9
CCc1ccccc1NC(=O)c1cc(-c2ccc(Cl)cc2)oc1C [ST/1545686]	> 50
O=S(=O)(Nc1ccccc1C(F)(F)F)c1ccc(-c2cccs2)s1 [DJ107456-053A67]	14.8
N=c1nc2n(c(=N)[nH]1)NC(c1ccc(Cl)cc1)=CS2 [ST/1850161]	47.9
O=C(Nc1ccc(NC(=O)c2cccs2)cc1Cl)c1ccccc1 [ST/1125044]	> 50
Cc1cccn2c(=O)c(C(=O)NCc3ccncc3)c(O)nc12 [ST/1129403]	> 50
Cc1ccc(C2=NN(S(=O)(=O)c3cc(Cl)sc3Cl)C(C)C2)cc1 (stereo not drawn) [U20197/52/63]	32.4
O=C(NCCc1ccccc1)c1ccccc1NS(=O)(=O)c1cccs1 [ST/648091]	18.6
CCOc1ccc(C(C)C)cc1S(=O)(=O)n1ccnc1 [ST/1289929]	10.5

SMILES	IC50 [µM]
CC(=O)N1N=C(COc2ccccc2Br)OC1C=Cc1ccccc1 (stereo not drawn) [ST/1451035]	> 50
Cc1cc(Cl)ccc1NC(=O)CN(c1ccccc1C(=O)O)S(=O)(=O)c1cccs1 [N9272-3-4]	> 50
Fc1ccc(-c2nc(-c3cccs3)[nH]c2-c2ccncc2)cc1 [JMS-15898-298-1]	20.9
COc1cccc2[nH]c(C(=O)Nc3cccc(Cl)c3)cc12 [ST/803957]	12.3
O=C(Nc1oc2ccc(Cl)cc2c(=O)c1-c1ccc(Br)cc1)c1ccco1 [ST/802162]	25.1
CCc1cccc(NC(=O)Nc2cc(F)ccc2F)c1 [SC/109224]	15.1
O=C(NC1=NN(c2ccc(Cl)c(Cl)c2)CC1)c1ccncc1 [N11828-23-3]	> 50
CCCCCc1c(C)nc(Nc2ccccc2)[nH]c1=O [ST/1105254]	17.4
N#Cc1ccc(NCCOc2ccc3ccccc3c2)nc1 [ST/1543199]	> 50
CN1CCN(c2ccc3ncc(-c4cccc(NC(=O)Cc5cccs5)c4)n3n2)CC1 [R11466/151/4]	> 50
c1ccc2oc(-c3ccnc4nncn34)cc2c1 [ST/1803771]	> 50
CCc1ccc2c(c1)c(=O)c(C(=O)O)cn2CC(F)(F)F [ST/2184718]	36.3
CCn1ncc2c(N[C@H]3CCCC[C@H]3C(=O)O)c(C(=O)NCc3ccccc3)cnc21 [R10565/35/4]	> 50
Nc1ncc(-c2ccccc2)cc1-c1nc2ccccc2[nH]1 [U18123/163/3]	37.2
O[C@@]1(c2ccc(F)cc2)CCCC[C@@H]1n1cncn1 [ST/2183803]	> 50
Nc1ccc(Br)cc1-c1nc(N)c2cc(Br)ccc2n1 [N4309-86-B1]	> 50
Cc1ccccc1NC(=O)COc1ccccc1NS(=O)(=O)c1cccs1 [N6862-82-2]	> 50
Cc1ccc(O)c(NC(=O)c2cccc(Br)c2)c1 [ST/867278]	21.9
O=S(=O)(Nc1cccc(F)c1CNCc1ccco1)c1ccc(Cl)c(Cl)c1 [DS105792-055A6B42]	19.5
CSc1ccccc1NS(=O)(=O)c1cccs1 [ST/867134]	> 50
O=C(Nc1ccc(F)c(Cl)c1)c1cc(-c2ccc(O)cc2)on1 [ST/1440432]	10.5
O=c1cc(-c2ccccc2O)oc2ccccc12 [SC/32543]	> 50
Cc1cc(Cl)ccc1NC(=O)COc1ccccc1NS(=O)(=O)c1cccs1 [N6862-82-1]	20
O=C(Nc1ccon1)c1cc2c(s1)CCCCCC2 [ST/1100321]	19.5

SMILES	IC50 [µM]
O=S(=O)(c1ccccc1)N1CCN(c2nccc(-c3cccs3)n2)CC1 [ST/1415180]	39.8
C=CCNc1nc(N)c([N+](=O)[O-])c(Nc2cccc(F)c2)n1 [ST/892571]	> 50
COCC(C)NC(=O)c1c(O)nc2c(C)cccn2c1=O (stereo not drawn) [ST/1131522]	> 50
CC1CSC(N(C(=O)CCc2ccco2)c2ccc(Cl)cc2)=N1 (stereo not drawn) [ST/816400]	21.9
O=C(c1ccco1)c1cn(Cc2ccc(F)cc2)c2ccccc12 [ST/727705]	28.8
O=C(NCc1ccccc1)c1sccc1NS(=O)(=O)c1ccccc1 [RF44798-098A22]	21.4
O=C(NC1=NN(c2ccc(Cl)c(Cl)c2)CC1)c1ncccn1 [N7030-10-104]	> 50
CCOc1cc(S(=O)(=O)N2CCN(Cc3ccc4c(c3)OCO4)CC2)ccc1Br [ST/910382]	21.4
Cc1cc(C(=O)N(C2=NC(C)CS2)c2ccc(Cl)cc2)no1 (stereo not drawn) [ST/807832]	> 50
Cc1cccc(C(=O)Nc2nc(-c3cccs3)ns2)c1 [ST/1197585]	30.9
Brc1ccc(OCc2nc3ccccc3[nH]2)cc1 [ST/839801]	49
CCOc1nc2ccccc2nc1NS(=O)(=O)c1ccccc1 [ST/646349]	22.9
O=C(Nc1cccc(Cl)c1)Nc1ccc2snnc2c1 [ST/736217]	13.5
O=S(=O)(Nc1cc(Cl)ccc1O)c1ccc(Cl)c(Cl)c1 [R10040/200/6]	12
CN1CC[C@@H](Oc2cc(CNC(=O)c3ccc(Br)cc3)ccc2Cl)C1 [DZ203929-138A2]	> 50
Cc1ccc2[nH]c(COc3ccc(Cl)cc3)nc2c1 [ST/743143]	29.5
O=S(=O)(Nc1cccc2nsnc12)c1cccs1 [SC/96769]	24.5
CN1CCN(CC(=O)Nc2ccc(C(F)(F)F)cc2)CC1c1ccccc1 (stereo not drawn) [ST/961463]	> 50
O=S(=O)(Nc1cccc(Cl)c1Cl)c1cccs1 [ST/906545]	21.4
O=S(=O)(Nc1cccc2nsnc12)c1ccccc1 [ST/663705]	39.8
O=C(NC1CCN(S(=O)(=O)c2ccc(O[C@@H]3CCNC3)cc2)CC1)c1ccc(Cl)c(Cl)c1 [AS45234-005A4B2C1D4]	> 50
O=c1nc(SCc2ccccc2F)c2c([nH]1)CCCC2 [ST/915519]	> 50
O=c1c(O)c(-c2ccccc2)oc2cc(O)cc(O)c12 [ST/2097267]	20.4
Cc1ccc2cc(C(=O)Nc3ccc(C)c(N)c3)sc2c1 [ST/551412]	20.4
